Experimental findings from ChEMBL document CHEMBL3046645, “Novel 1,3-diarylpyrazole acrylamides: synthesis, antiplatelet activity screening, and in silico evaluation studies” (Med Chem Res, 2013) are described below.

Calls of active or inactive are those of the source. The rule behind the calls is not given here.

Usually inhibition stands for how much of the control response was suppressed. A word on the IC50: it is the concentration needed to halve the response being measured.

Common to all, as to assay type: functional
The subject of experiment [1] is Platelet. In words: Antiplatelet activity in human platelet-rich plasma assessed as inhibition of arachidonic acid-induced aggregation at 100 uM incubated for 5 mins prior to arachidonic acid-challenge measured for 3 mins by turbidrometric analysis relative to control.
Experiment [2] is described as follows: Antiplatelet activity in human platelet-rich plasma assessed as inhibition of arachidonic acid-induced aggregation incubated for 5 mins prior to arachidonic acid-challenge measured for 3 mins by turbidrometric analysis.
Experiment [3] can be described thus: (§1) Antiplatelet activity in human platelet-rich plasma assessed as inhibition of collagen-induced aggregation at 100 uM incubated for 5 mins prior to collagen-challenge measured for 3 mins by turbidrometric analysis relative to control.
In experiment [4] the test system is Platelet. Described as §1.

In the case of `O=C(/C=C/c1cn(-c2ccccc2)nc1-c1ccncc1)N1CCCCC1`, in experiment [1], the inhibition entry was “Active”. Regarding `O=C(/C=C/c1cn(-c2ccccc2)nc1-c1ccncc1)NC1CCCCC1`, the IC50 in experiment [2] came out at 30.3 µM. The inhibition at 100 µM in experiment [3] was 71.8%. With `O=C(/C=C/c1cn(-c2ccccc2)nc1-c1ccncc1)N1CCN(c2cccc(Cl)c2)CC1`, the inhibition entry in experiment [1] and in experiment [4] was “inactive” in each case.

As to `O=C(/C=C/c1cn(-c2ccccc2)nc1-c1ccncc1)N1CCC(Cc2ccccc2)CC1`, the inhibition result in experiment [1] and in experiment [4] was “inactive” each time. As for `COc1ccc(N2CCN(C(=O)/C=C/c3cn(-c4ccccc4)nc3-c3ccncc3)CC2)c(OC)c1OC`, the inhibition result in experiment [1] and in experiment [4] was “inactive” each time. With `O=C(/C=C/c1cn(-c2ccccc2)nc1-c1ccncc1)N1CCOCC1`, in experiment [1], the inhibition result is “Active”. With `CC(=O)Oc1ccccc1C(=O)O` [ASPIRIN], the IC50 in experiment [2] came to 7.7 µM. With `O=C(/C=C/c1cn(-c2ccccc2)nc1-c1ccncc1)N1CCN(c2ccc(Cl)cc2)CC1`, the inhibition entry in experiment [1] and in experiment [4] was “inactive” each time.

On to `O=C(/C=C/c1cn(-c2ccccc2)nc1-c1ccncc1)N1CCN(c2ccncc2)CC1`, for which the inhibition entry in experiment [1] was “inactive”. Besides, the inhibition at 100 µM in experiment [3] stood at 82.5%. For `O=C(/C=C/c1cn(-c2ccccc2)nc1-c1ccncc1)N1CCN(C(=O)c2ccco2)CC1` the same measures were “inactive” and 50%. For `O=C(/C=C/c1cn(-c2ccccc2)nc1-c1ccncc1)N1CCN(c2ccc(C(F)(F)F)cc2)CC1`, the inhibition result in experiment [1] is “inactive”. Also, in experiment [3], the inhibition at 100 µM is 25%.

`O=C(/C=C/c1cn(-c2ccccc2)nc1-c1ccncc1)N1CCN(c2ncccn2)CC1`: the inhibition entry in experiment [1] was “inactive”. In addition, the inhibition at 100 µM in experiment [3] was 73.1%. Take `COc1ccc(CNC(=O)/C=C/c2cn(-c3ccccc3)nc2-c2ccncc2)cc1`: the inhibition result in experiment [1] and in experiment [4] was “inactive” throughout. `CCOc1ccccc1N1CCN(C(=O)/C=C/c2cn(-c3ccccc3)nc2-c2ccncc2)CC1`: in experiment [1], the inhibition entry was “inactive”. In addition, the inhibition at 100 µM in experiment [3] was 42%. Turning to `O=C(/C=C/c1cn(-c2ccccc2)nc1-c1ccncc1)N1CCN(c2ccccc2)CC1`, the inhibition result in experiment [1] and in experiment [4] was “inactive” in each case. Take `O=C(/C=C/c1cn(-c2ccccc2)nc1-c1ccncc1)N1CCN(CCOCCO)CC1`: the inhibition entry in experiment [1] and in experiment [4] was “inactive” throughout. For `COc1ccccc1N1CCN(C(=O)/C=C/c2cn(-c3ccccc3)nc2-c2ccncc2)CC1`, the inhibition result in experiment [1] and in experiment [4] was “inactive” throughout. Regarding `O=C(/C=C/c1cn(-c2ccccc2)nc1-c1ccncc1)N1CCN(C(=O)C2CCCO2)CC1` (stereo not drawn), the inhibition result in experiment [1] was “inactive”. Also, in experiment [3], the inhibition at 100 µM is 68.9%. As for `O=C(/C=C/c1cn(-c2ccccc2)nc1-c1ccncc1)NC1CC1`, the inhibition entry in experiment [1] and in experiment [4] was “inactive” in each case. Turning to `Cc1cccc(N2CCN(C(=O)/C=C/c3cn(-c4ccccc4)nc3-c3ccncc3)CC2)c1C`, the inhibition result in experiment [1] and in experiment [4] was “inactive” each time. For `O=C(/C=C/c1cn(-c2ccccc2)nc1-c1ccncc1)NCc1ccccc1`, the IC50 in experiment [2] was determined as 20.2 µM. The inhibition at 100 µM in experiment [3] turned out to be 54.9%.

With `Cc1ccc(N2CCN(C(=O)/C=C/c3cn(-c4ccccc4)nc3-c3ccncc3)CC2)cc1`, the inhibition result in experiment [1] and in experiment [4] was “inactive” each time. `O=C(O)/C=C/c1cn(-c2ccccc2)nc1-c1ccncc1`: the inhibition result in experiment [1] and in experiment [4] was “inactive” in each case.
